Data as given in PMC5309245, “Discovery and Characterization of Diazenylaryl Sulfonic Acids as Inhibitors of Viral and Bacterial Neuraminidases” (Frontiers in Microbiology, 2017).
Where “and” joins values, the source holds several entries; their conditions need not be identical. Identical values can stand only once.

Columns and labels:
human erythrocytes [1] = format: cell-based; settings: human erythrocytes, 2 h at 4°C
Experimental: (§1) Viral (whole virus) and bacterial NA activity as well as their inhibition were measured by using a fluorescence (FL) assay with the substrate 2′-(4-methylumbelliferyl)-α-D-N-acetylneuraminic acid sodium salt hydrate (MUNANA, 100 μM; Sigma-Aldrich GmbH, Taufkirchen, Germany), and/or a hemagglutination (HA)-based NA inhibition assay (HA assay) with human erythrocytes (Institute of Transfusion Medicine, University Hospital Jena, Jena, Germany), both assays as published recently (Richter et al., [2015]). Recombinant NanA (rNanA) and total precipitated bacterial protein of S. pneumoniae DSM20566 were used in FL and HA assays. Interference of the compounds with the FL signal (self-fluorescence and quenching) was excluded as described previously (Richter et al., [2015]). […] Each compound was tested at least three times in both NA inhibition assays.
Supplementary Table 1. Assay interference phenomena of test compounds in the HA-based […]
sample concentrations [µM] in viral HA-assay bacterial HA-assay […]
hem- prevention of erythrocyte hem- erythrocyte agglutinationa virus-induced lysisc agglutinationd lysise […]
cTest compounds lysed the human erythrocytes (2 h at 4°C). […]

[2] = biological target: S. pneumoniae recombinant NanA 9400_LC (Streptococcus pneumoniae, UniProt P62575); assay: biochemical; parameters: species or system Streptococcus pneumoniae CJ9400
S. pneumoniae recombinant NanA 9400_LC, sequence (P62575 116-833): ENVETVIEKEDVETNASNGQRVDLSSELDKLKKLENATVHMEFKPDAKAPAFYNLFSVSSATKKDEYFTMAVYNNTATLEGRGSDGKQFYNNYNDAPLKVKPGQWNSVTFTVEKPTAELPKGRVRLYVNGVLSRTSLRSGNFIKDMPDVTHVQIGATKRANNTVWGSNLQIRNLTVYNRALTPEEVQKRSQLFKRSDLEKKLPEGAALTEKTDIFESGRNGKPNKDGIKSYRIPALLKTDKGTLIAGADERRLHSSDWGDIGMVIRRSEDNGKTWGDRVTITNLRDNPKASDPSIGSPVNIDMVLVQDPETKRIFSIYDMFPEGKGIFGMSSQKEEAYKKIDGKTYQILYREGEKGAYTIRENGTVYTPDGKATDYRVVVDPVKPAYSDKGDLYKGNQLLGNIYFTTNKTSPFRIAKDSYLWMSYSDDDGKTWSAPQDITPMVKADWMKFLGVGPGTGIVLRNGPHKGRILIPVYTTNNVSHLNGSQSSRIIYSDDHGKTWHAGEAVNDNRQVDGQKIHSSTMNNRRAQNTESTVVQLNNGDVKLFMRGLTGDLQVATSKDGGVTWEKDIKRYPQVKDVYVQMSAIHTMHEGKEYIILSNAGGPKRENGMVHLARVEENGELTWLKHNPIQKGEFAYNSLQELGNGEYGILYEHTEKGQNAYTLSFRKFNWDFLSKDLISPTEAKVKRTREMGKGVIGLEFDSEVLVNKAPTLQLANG

[3] = biological target: Influenza virus A/WSN/33 NA-wt (whole virus) (Influenza A virus, UniProt P03470); format: biochemical, influenza A virus A/WSN/1933 (H1N1)
Influenza virus A/WSN/33 NA-wt (whole virus), sequence (P03470 whole entry, looked up): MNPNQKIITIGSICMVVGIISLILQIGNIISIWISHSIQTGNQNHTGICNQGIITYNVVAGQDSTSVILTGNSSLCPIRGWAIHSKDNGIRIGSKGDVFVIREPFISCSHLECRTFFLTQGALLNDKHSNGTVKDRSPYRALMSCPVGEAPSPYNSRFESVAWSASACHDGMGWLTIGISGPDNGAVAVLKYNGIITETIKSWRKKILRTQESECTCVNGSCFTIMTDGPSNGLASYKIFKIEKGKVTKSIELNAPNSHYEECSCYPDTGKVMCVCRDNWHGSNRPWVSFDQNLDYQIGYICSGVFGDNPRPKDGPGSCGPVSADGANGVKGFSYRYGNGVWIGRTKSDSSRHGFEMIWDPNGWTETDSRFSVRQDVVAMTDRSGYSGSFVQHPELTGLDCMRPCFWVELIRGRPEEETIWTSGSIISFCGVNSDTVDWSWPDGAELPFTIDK

[4] = biological target: S. pneumoniae recombinant NanA 9400_CC (Streptococcus pneumoniae, UniProt P62575); assay: biochemical; format: biochemical, Streptococcus pneumoniae CJ9400
S. pneumoniae recombinant NanA 9400_CC, sequence (P62575 311-833): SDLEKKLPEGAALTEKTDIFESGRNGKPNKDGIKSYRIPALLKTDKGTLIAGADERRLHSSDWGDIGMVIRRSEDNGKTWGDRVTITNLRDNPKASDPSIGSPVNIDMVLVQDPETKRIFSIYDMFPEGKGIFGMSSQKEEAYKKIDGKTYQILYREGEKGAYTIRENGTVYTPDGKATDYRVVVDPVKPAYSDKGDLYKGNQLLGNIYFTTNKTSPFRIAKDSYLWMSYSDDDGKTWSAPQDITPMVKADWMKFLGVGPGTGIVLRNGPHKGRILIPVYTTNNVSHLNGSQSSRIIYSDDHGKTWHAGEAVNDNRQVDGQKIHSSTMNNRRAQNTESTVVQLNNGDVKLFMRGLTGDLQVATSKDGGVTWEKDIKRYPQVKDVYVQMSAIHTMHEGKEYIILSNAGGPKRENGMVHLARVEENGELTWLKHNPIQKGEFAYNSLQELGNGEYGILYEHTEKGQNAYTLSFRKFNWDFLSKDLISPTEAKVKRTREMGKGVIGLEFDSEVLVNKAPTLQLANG

[5] = biological target: T1, S. pneumoniae DSM20566 NA (NanA) (Streptococcus pneumoniae, UniProt P62575); assay: FL NA inhibition assay, S. pneumoniae DSM20566; format: biochemical; settings: MUNANA substrate; read-out: NA inhibition using FL assay IC50, S. p. DSM20566
T1 construct: host or cells: either rNanA from E. coli BL21(DE3) or total precipitated protein of S. pneumoniae DSM20566

[6] = biological target: S. pneumoniae recombinant NanA 20566_LC (Streptococcus pneumoniae, UniProt P62575); assay: biochemical; parameters: species or system Streptococcus pneumoniae DSM20566
S. pneumoniae recombinant NanA 20566_LC, sequence (P62575 116-833): as the sequence (P62575 116-833) above

WSN/33 = format: cell-based, influenza A virus A/WSN/1933 (H1N1)
IAV 5258/09 NA = assay: Hemagglutination (HA)-based NA inhibition assay, IAV 5258/09; format: cell-based, influenza A virus A/Jena/5258/2009 (H1N1); settings: human erythrocytes
[7] = system: influenza A virus 8178/09; assay: microbe, parasite or virus in culture; format: cell-based, influenza A virus A/Jena/8178/2009 (H1N1); settings: Influenza A virus, MDCK, 48 h, read-out: 50% inhibitory concentration, influenza A virus 8178/09
[8] = system: Influenza virus A/Jena/8178/09; format: cell-based, influenza A virus A/Jena/8178/2009 (H1N1)
influenza A virus HK/68 = assay: microbe, parasite or virus in culture; format: cell-based, influenza A virus A/Hong Kong/68 (H3N2); settings: Influenza A virus, MDCK, 48 h, read-out: 50% inhibitory concentration, influenza A virus HK/68
[9] = biological target: S. pneumoniae recombinant NanA 8919_LC (Streptococcus pneumoniae, UniProt P62575); assay: biochemical; format: biochemical, Streptococcus pneumoniae CF8919
S. pneumoniae recombinant NanA 8919_LC, sequence (P62575 116-833): as above

[10] = biological target: IAV HK/68 NA (whole virus) (Influenza A virus, UniProt Q91MA2); assay: biochemical; parameters: species or system influenza A virus A/Hong Kong/68 (H3N2); settings: NA inhibition using FL assay IC50, IAV HK/68
[11] = biological target: T2, S. pneumoniae DSM20566 NA (Streptococcus pneumoniae, UniProt P62575); assay: HA-based NA inhibition assay, S. pneumoniae DSM20566; format: cell-based; settings: human erythrocytes
T2 construct: host or cells: either rNanA from E. coli BL21(DE3) or total precipitated protein of S. pneumoniae DSM20566
T2 sequence (P62575 54-1035): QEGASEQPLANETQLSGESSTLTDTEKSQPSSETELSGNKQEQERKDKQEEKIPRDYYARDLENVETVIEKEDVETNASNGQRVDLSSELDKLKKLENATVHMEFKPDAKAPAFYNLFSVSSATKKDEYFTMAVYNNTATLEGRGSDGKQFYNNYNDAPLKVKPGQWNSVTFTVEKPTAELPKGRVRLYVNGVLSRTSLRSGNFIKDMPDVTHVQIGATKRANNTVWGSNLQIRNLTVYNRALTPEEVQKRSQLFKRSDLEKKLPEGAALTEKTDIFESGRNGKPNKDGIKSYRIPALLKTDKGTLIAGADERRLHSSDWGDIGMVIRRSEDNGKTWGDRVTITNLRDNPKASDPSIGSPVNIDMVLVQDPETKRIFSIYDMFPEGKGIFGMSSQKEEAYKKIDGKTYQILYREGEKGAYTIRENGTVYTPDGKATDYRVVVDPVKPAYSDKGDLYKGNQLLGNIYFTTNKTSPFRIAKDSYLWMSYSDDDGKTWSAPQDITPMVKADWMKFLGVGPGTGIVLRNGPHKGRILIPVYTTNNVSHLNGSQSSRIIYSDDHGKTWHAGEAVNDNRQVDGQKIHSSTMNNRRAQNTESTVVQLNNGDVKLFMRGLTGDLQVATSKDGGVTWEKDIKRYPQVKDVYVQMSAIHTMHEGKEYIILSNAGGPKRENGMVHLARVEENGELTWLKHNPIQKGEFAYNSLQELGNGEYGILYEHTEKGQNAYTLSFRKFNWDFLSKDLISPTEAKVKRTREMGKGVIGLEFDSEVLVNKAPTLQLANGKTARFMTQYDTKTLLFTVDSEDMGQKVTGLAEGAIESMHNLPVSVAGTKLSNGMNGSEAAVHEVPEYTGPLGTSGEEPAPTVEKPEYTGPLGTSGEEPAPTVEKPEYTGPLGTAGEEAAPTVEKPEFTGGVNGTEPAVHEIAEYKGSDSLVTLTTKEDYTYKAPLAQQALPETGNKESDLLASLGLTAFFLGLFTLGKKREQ

in vitro = settings: dog
[12] = biological target: S. pneumoniae recombinant NanA 20566_CC (Streptococcus pneumoniae, UniProt P62575); assay: biochemical; parameters: species or system Streptococcus pneumoniae DSM20566
S. pneumoniae recombinant NanA 20566_CC, sequence (P62575 311-833): as the sequence (P62575 311-833) above

[13] = system: 8178/09-, WSN/33-, or HK/68-induced cytopathic effect; assay: CPE inhibition assay (viruses not separated); format: cell-based; settings: Influenza A virus, MDCK, read-out: IC50 of inhibition of the 8178/09-, WSN/33-, or HK/68-induced cytopathic effect
human erythrocytes [14] = format: cell-based; settings: human erythrocytes, 4 h at 37°C and 12 h at 4°C
Experimental: as §1
Supplementary Table 1. […]
eTest compounds lysed the human erythrocytes (4 h at 37°C and 12 h at 4°C).

S. pneumoniae DSM20566 [15] = assay: Microtiter broth microdilution assay, planktonic growth; format: cell-based, Streptococcus pneumoniae DSM20566; settings: Streptococcus pneumoniae, DSM20566; 18 h, maximum 50 μM; read-out: 50% inhibitory concentration, S. pneumoniae DSM20566 planktonic growth
[16] = system: S. pneumoniae DSM20566 biofilm; assay: Biofilm inhibition assay; format: cell-based, Streptococcus pneumoniae DSM20566; settings: Streptococcus pneumoniae, DSM20566; 50 μM; read-out: Inhibition of biofilm formation at the maximum tested concentration
S. pneumoniae DSM20566 [17] = assay: Bactericidal or bacteriostatic activity (subculture on blood agar); format: cell-based, Streptococcus pneumoniae DSM20566; settings: 50 µM
influenza A virus WSN/33 = assay: microbe, parasite or virus in culture; format: cell-based, influenza A virus A/WSN/1933 (H1N1); settings: Influenza A virus, WSN, MDCK, 48 h, read-out: 50% inhibitory concentration, influenza A virus WSN/33

For Cc1cc(N=Nc2ccc(N=Nc3c(O)c(S(=O)(=O)O)cc4cc(S(=O)(=O)O)ccc34)cc2C)ccc1N=Nc1ccc2cc(S(=O)(=O)O)cc(S(=O)(=O)O)c2c1 [Compound 1, 7-[2-[4-[2-[4-[2-(2-hydroxy-3,6-disulfo-1-naphthalenyl)diazenyl]-2-methylphenyl]diazenyl]-2-methylphenyl]diazenyl]-1,3-naphthalenedisulfonic acid], the “sample concentrations provoking erythrocyte lysis, viral HA-assay” value (human erythrocytes [1]) was “no”, the Binding mechanism [2] was “Mixed” and the Ki ([2]; Ki) was 190 ± 20 nM. The Ki ([2]; Ki (fit printed in Lineweaver-Burk plot, Supplementary Figure 2D)) was 172 nM, the Binding mechanism [3] was “Mixed” and the “binding kinetics (effect of pre-incubation on Ki)” value [3] was “fast-binding inhibitor”. For the same molecule, the Binding mechanism [4] was “Mixed”, the Ki [4] was 160 ± 10 nM and the “alpha (fit printed in Lineweaver-Burk plot, Supplementary Figure 2E)” value [4] was 3,7. The IC50 [5] was 320 ± 50 nM, the Binding mechanism [6] was “Mixed” and the “alpha (fit in Lineweaver-Burk plot, Supplementary Figure 2B)” value [6] was 12,9. For the same molecule, the Ki ([6]; Ki) was 120 ± 10 nM, the Ki ([6]; Ki (fit in Lineweaver-Burk plot, Supplementary Figure 2B)) was 103 nM and the “Decrease of plaque formation, compound during the whole replication cycle” value (WSN/33) was “up to 100%”. For the same molecule, the “Plaque numbers after pretreatment of MDCK cells” value (WSN/33) was “not affected”, the “Reduction of plaque number after pretreatment of the cell-free virus” value (WSN/33) was ~ 95% and the “Reduction of plaque number, compound added during virus adsorption” value (WSN/33) was 50%. The “NA inhibition using HA assay MIC, IAV 5258/09” value (IAV 5258/09 NA) was 10.00 ± 0.00 µM, the IC50 [7] was 20400 ± 2510 nM and the “Mean reduction in plaque numbers ± SD” value [8] was 96.10 ± 3.45% and 96.46 ± 1.08% and 97.76 ± 0.65% and 94.12 ± 3.06%. The “Mean ± SD of both experiments, reduction in plaque numbers” value [8] was 95.29 ± 1.65% and 96.93 ± 1.17%, the IC50 (influenza A virus HK/68) was 18500 ± 9590 nM and the Binding mechanism [9] was “Mixed”. The Ki [9] was 110 ± 20 nM, the “alpha (fit printed in Lineweaver-Burk plot, Supplementary Figure 2A)” value [9] was 7,8 and the IC50 [10] was 1420 ± 440 nM. For the same molecule, the “NA inhibition using HA assay MIC, S. p. DSM20566” value [11] was 7.26 ± 3.75 µM, the CC50 (in vitro) was > 100000 nM and the Binding mechanism [12] was “Mixed”. For the same molecule, the “alpha (fit in Lineweaver-Burk plot, Supplementary Figure 2C)” value [12] was 5,5, the Ki ([12]; Ki) was 160 ± 30 nM and the Ki ([12]; Ki (fit in Lineweaver-Burk plot, Supplementary Figure 2C)) was 143 nM. For the same molecule, the IC50 [13] was < 15000 nM, the “sample concentrations provoking erythrocyte lysis, bacterial HA-assay” value (human erythrocytes [14]) was “no” and the IC50 (S. pneumoniae DSM20566 [15]) was 28800 ± 13100 nM. For the same molecule, the inhibition at 50 µM [16] was 49%, the “Activity (bactericidal or bacteriostatic)” value (S. pneumoniae DSM20566 [17]) was “bacteriostatic” and the “cfu per agar plate” value (S. pneumoniae DSM20566 [17]; 18 h, then subculture) was > 150. It also gave an IC50 (influenza A virus WSN/33) of 7170 ± 960 nM.
